Several values for one entry are separate records, joined by “and”; a condition that tells them apart may be missing. Identical values can stand only once.
System: 276233-004-R-J1-PDC KRAS spheroids with HUVEC/MSC, viability
Experiment: Anticancer human tumor 276233-004-R-J1-PDC patient-derived colon adenocarcinoma cell line growth inhibition [KRAS2]
Conditions: for viability, T/C: stronger effect = lower value
Outline: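 Combination screen of spheroid viability in tumor-cell co-cultures with endothelial (HUVEC) and mesenchymal stem cell stroma. Each agent was tested in half-log dilutions, topping at clinical Cmax or at 10 microM without a known Cmax.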

[1] = curve of first compound, second compound 0.1 µM
[2] = curve of first compound, second compound 0.316 µM
[3] = curve of first compound, second compound 1 µM
[4] = curve of first compound, second compound 3.16 µM
[5] = curve of first compound, second compound 10 µM
[6] = second compound 0.1 µM, first compound 0.0316 µM
[7] = second compound 0.1 µM, first compound 0.1 µM
[8] = second compound 0.1 µM, first compound 0.316 µM
[9] = second compound 0.1 µM, first compound 1 µM
[10] = second compound 0.316 µM, first compound 0.0316 µM
[11] = second compound 0.316 µM, first compound 0.1 µM
[12] = second compound 0.316 µM, first compound 0.316 µM
[13] = second compound 0.316 µM, first compound 1 µM
[14] = second compound 1 µM, first compound 0.0316 µM
[15] = second compound 1 µM, first compound 0.1 µM
[16] = second compound 1 µM, first compound 0.316 µM
[17] = second compound 1 µM, first compound 1 µM
[18] = second compound 3.16 µM, first compound 0.0316 µM
[19] = second compound 3.16 µM, first compound 0.1 µM
[20] = second compound 3.16 µM, first compound 0.316 µM
[21] = second compound 3.16 µM, first compound 1 µM
[22] = second compound 10 µM, first compound 0.0316 µM
[23] = second compound 10 µM, first compound 0.1 µM
[24] = second compound 10 µM, first compound 0.316 µM
[25] = second compound 10 µM, first compound 1 µM
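Also: cells exposed to agents for seven days before viability read.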
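For viability, T/C in this document: 100% = DMSO vehicle control wells and lower values mean fewer viable cells.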

CCN1CCN(Cc2ccc(Nc3ncc(F)c(-c4cc(F)c5nc(C)n(C(C)C)c5c4)n3)nc2)CC1 + CNCc1ccccc1-c1csc(C(C)Nc2nc(C)nc3cc(OC)c(OC)cc23)c1
IC50 [1]: > 1 µM | IC50 [2]: > 1 µM | IC50 [3]: 0.54 µM | IC50 [4]: < 0.00316 µM | IC50 [5]: < 0.00316 µM | viability, T/C (second compound 0.1 µM, first compound 0.00316 µM): 129% | viability, T/C (second compound 0.1 µM, first compound 0.01 µM): 106% | viability, T/C [6]: 87.1% | viability, T/C [7]: 92.1% | viability, T/C [8]: 126% | viability, T/C [9]: 115% | viability, T/C (second compound 0.316 µM, first compound 0.00316 µM): 90.2% | viability, T/C (second compound 0.316 µM, first compound 0.01 µM): 111% | viability, T/C [10]: 95.3% | viability, T/C [11]: 107% | viability, T/C [12]: 104% | viability, T/C [13]: 116% | viability, T/C (second compound 1 µM, first compound 0.00316 µM): 92.2% | viability, T/C (second compound 1 µM, first compound 0.01 µM): 96.9% | viability, T/C [14]: 76.3% | viability, T/C [15]: 76.2% | viability, T/C [16]: 80.7% | viability, T/C [17]: 16% | viability, T/C (second compound 3.16 µM, first compound 0.00316 µM): 0.71% | viability, T/C (second compound 3.16 µM, first compound 0.01 µM): 0.53% | viability, T/C [18]: 0.51% | viability, T/C [19]: 0.41% | viability, T/C [20]: 1.45% | viability, T/C [21]: 0.72% | viability, T/C (second compound 10 µM, first compound 0.00316 µM): 0.81% | viability, T/C (second compound 10 µM, first compound 0.01 µM): 1.33% | viability, T/C [22]: 0.33% | viability, T/C [23]: 0.21% | viability, T/C [24]: 0.22% | viability, T/C [25]: 0.3%

COc1cc2nccc(Oc3ccc(NC(=O)C4(C(=O)Nc5ccc(F)cc5)CC4)cc3)c2cc1OC + CC1OCC2(CCN(c3cnc(Sc4ccnc(N)c4Cl)c(N)n3)CC2)C1N
IC50 [1]: > 10 µM | IC50 [2]: > 10 µM | IC50 [3]: > 10 µM | IC50 [4]: > 10 µM | IC50 [5]: 3.58 µM | viability, T/C [6]: 78.9% | viability, T/C [7]: 77.1% | viability, T/C [8]: 85.4% | viability, T/C [9]: 75.1% | viability, T/C (second compound 0.1 µM, first compound 3.16 µM): 80% | viability, T/C (second compound 0.1 µM, first compound 10 µM): 77.6% | viability, T/C [10]: 73.5% | viability, T/C [11]: 64.7% | viability, T/C [12]: 69.5% | viability, T/C [13]: 72.7% | viability, T/C (second compound 0.316 µM, first compound 3.16 µM): 81.9% | viability, T/C (second compound 0.316 µM, first compound 10 µM): 59.6% | viability, T/C [14]: 65% | viability, T/C [15]: 67.4% | viability, T/C [16]: 60.7% | viability, T/C [17]: 75.7% | viability, T/C (second compound 1 µM, first compound 3.16 µM): 70.9% | viability, T/C (second compound 1 µM, first compound 10 µM): 52.7% | viability, T/C [18]: 55.5% | viability, T/C [19]: 67.9% | viability, T/C [20]: 55.1% | viability, T/C [21]: 61.7% | viability, T/C (second compound 3.16 µM, first compound 3.16 µM): 72.2% | viability, T/C (second compound 3.16 µM, first compound 10 µM): 44% | viability, T/C [22]: 71.8% | viability, T/C [23]: 59.7% | viability, T/C [24]: 56.7% | viability, T/C [25]: 53% | viability, T/C (second compound 10 µM, first compound 3.16 µM): 58.2% | viability, T/C (second compound 10 µM, first compound 10 µM): 42.6%

CC(C)NCC(C(=O)N1CCN(c2ncnc3c2C(C)CC3O)CC1)c1ccc(Cl)cc1 (centres undefined)
viability, T/C (compound 0.0316 µM): 91% [middle of 5 runs] | viability, T/C (compound 0.1 µM): 91.5% [middle of 5 runs] | viability, T/C (compound 0.316 µM): 79.8% [middle of 5 runs] | viability, T/C (compound 10 µM): 73.1% [middle of 5 runs] | IC50 (curve of compound): > 10 µM

CC1OCC2(CCN(c3cnc(Sc4ccnc(N)c4Cl)c(N)n3)CC2)C1N (centres undefined)
viability, T/C (compound 0.0316 µM): 83.3% and 88.2% and 102% | IC50 (compound alone, run of 07/19/2021): > 10 µM | IC50 (compound alone, run of 07/26/2021): > 10 µM | IC50 (curve of compound): > 10 µM

CCNC(=O)CC1N=C(c2ccc(Cl)cc2)c2cc(OC)ccc2-n2c(C)nnc21 (centres undefined)
viability, T/C (compound 0.0316 µM): 95.8% [middle of 5 runs] | viability, T/C (compound 0.1 µM): 88.7% [middle of 5 runs] | viability, T/C (compound 0.316 µM): 68.2% [middle of 5 runs] | viability, T/C (compound 1 µM): 70.9% [middle of 5 runs] | viability, T/C (compound 3.16 µM): 71.3% [middle of 5 runs] | IC50 (curve of compound): > 10 µM and 5.56 µM

Cn1ncnc1[C@H]1c2n[nH]c(=O)c3cc(F)cc(c23)N[C@@H]1c1ccc(F)cc1
viability, T/C (compound 0.000316 µM): 96.7% [middle of 5 runs] | viability, T/C (compound 0.001 µM): 101% [middle of 5 runs] | viability, T/C (compound 0.1 µM): 102% [middle of 5 runs] | IC50 (curve of compound): > 0.1 µM

— PubChem BioAssay AID1963873 (Molecular Pharmacology Branch, DTP, NCI, 2024)
